Test results: ChEMBL document CHEMBL2010689 (J Med Chem, 2012)
The source made the active and inactive calls. The calls are words filed in the database; no cut-off is given here.

Tests used:
[1] = Antitumor activity against human U251MG cells xenografted in athymic nude mouse assessed as partial tumor regression at 3 mg/kg, po bid; type: functional, U-251
[2] = Antitumor activity against human U251MG cells xenografted in athymic nude mouse assessed as complete tumor regression at 30 mg/kg, po bid; type: functional, U-251
[3] = Metabolic stability in human liver S9 fraction assessed as compound remaining after 2 hrs; type: ADME, subcellular; settings: read-out: Stability
[4] = Terminal half life in Sprague-Dawley rat at 0.8 mg/kg, iv; type: ADME, organism-based; set-up: dose 0.8 mg/kg, route intravenous; settings: in vivo, read-out: beta t1/2 (converted)
[5] = AUC in Sprague-Dawley rat at 5 mg/kg, po; type: ADME, organism-based; set-up: dose 5 mg/kg, route oral; settings: plasma
[6] = Half life in Sprague-Dawley rat at 5 mg/kg, po; type: ADME, organism-based; set-up: dose 5 mg/kg, route oral; settings: in vivo
[7] = Terminal half life in cynomolgus monkey at 0.5 mg/kg, iv; type: ADME, organism-based, Macaca fascicularis; set-up: dose 0.5 mg/kg, route intravenous; settings: in vivo, read-out: beta t1/2 (converted)
[8] = AUC in cynomolgus monkey at 3 mg/kg, po; type: ADME, organism-based, Macaca fascicularis; set-up: dose 3 mg/kg, route oral; settings: plasma
[9] = Tmax in cynomolgus monkey at 3 mg/kg, po; type: ADME, organism-based, Macaca fascicularis; set-up: dose 3 mg/kg, route oral; settings: in vivo
[10] = Oral bioavailability in cynomolgus monkey at 3 mg/kg; type: ADME, organism-based, Macaca fascicularis; settings: in vivo
[11] = target: T1, Cytochrome P450 3A4 (Homo sapiens, UniProt P08684); assay: Inhibition of CYP3A4; type: ADME
T1 sequence (P08684 whole entry): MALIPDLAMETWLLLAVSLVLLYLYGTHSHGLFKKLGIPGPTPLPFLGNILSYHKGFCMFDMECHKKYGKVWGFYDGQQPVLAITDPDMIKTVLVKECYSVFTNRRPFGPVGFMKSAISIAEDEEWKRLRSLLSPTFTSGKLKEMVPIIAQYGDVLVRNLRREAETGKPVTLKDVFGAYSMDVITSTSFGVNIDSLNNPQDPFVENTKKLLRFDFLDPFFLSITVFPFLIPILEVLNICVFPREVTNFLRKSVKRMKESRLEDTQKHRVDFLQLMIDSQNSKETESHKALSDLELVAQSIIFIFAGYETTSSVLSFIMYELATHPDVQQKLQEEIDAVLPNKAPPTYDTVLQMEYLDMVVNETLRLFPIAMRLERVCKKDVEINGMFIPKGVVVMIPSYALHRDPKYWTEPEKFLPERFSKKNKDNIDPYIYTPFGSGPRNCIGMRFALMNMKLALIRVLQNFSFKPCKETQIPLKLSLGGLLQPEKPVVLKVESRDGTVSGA

[12] = target: Cytochrome P450 2C19 (Homo sapiens, UniProt P33261); assay: Inhibition of CYP2C19; type: ADME
Sequence of Cytochrome P450 2C19 (P33261 whole entry): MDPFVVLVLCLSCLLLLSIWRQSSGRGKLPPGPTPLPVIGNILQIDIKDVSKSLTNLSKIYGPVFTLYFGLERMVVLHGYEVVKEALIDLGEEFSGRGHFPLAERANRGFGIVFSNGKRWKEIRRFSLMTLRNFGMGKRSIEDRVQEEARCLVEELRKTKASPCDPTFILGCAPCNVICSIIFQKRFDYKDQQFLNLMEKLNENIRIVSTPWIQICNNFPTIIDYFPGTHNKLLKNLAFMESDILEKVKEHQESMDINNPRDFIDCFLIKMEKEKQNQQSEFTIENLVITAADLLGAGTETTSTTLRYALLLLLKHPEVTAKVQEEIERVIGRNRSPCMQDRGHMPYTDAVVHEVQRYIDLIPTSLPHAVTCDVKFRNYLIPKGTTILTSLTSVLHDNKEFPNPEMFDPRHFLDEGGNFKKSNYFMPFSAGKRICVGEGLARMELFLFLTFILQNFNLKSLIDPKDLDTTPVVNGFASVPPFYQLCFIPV

[13] = target: T1, Cytochrome P450 3A4; assay: Induction of CYP3A4; type: ADME
[14] = Apparent permeability across human Caco2 cells; type: ADME, cell-based; settings: Caco-2
[15] = target: ALK tyrosine kinase receptor (Homo sapiens, UniProt Q9UM73); assay: Inhibition of human ALK using ATP as substrate
Sequence of ALK tyrosine kinase receptor (Q9UM73 whole entry): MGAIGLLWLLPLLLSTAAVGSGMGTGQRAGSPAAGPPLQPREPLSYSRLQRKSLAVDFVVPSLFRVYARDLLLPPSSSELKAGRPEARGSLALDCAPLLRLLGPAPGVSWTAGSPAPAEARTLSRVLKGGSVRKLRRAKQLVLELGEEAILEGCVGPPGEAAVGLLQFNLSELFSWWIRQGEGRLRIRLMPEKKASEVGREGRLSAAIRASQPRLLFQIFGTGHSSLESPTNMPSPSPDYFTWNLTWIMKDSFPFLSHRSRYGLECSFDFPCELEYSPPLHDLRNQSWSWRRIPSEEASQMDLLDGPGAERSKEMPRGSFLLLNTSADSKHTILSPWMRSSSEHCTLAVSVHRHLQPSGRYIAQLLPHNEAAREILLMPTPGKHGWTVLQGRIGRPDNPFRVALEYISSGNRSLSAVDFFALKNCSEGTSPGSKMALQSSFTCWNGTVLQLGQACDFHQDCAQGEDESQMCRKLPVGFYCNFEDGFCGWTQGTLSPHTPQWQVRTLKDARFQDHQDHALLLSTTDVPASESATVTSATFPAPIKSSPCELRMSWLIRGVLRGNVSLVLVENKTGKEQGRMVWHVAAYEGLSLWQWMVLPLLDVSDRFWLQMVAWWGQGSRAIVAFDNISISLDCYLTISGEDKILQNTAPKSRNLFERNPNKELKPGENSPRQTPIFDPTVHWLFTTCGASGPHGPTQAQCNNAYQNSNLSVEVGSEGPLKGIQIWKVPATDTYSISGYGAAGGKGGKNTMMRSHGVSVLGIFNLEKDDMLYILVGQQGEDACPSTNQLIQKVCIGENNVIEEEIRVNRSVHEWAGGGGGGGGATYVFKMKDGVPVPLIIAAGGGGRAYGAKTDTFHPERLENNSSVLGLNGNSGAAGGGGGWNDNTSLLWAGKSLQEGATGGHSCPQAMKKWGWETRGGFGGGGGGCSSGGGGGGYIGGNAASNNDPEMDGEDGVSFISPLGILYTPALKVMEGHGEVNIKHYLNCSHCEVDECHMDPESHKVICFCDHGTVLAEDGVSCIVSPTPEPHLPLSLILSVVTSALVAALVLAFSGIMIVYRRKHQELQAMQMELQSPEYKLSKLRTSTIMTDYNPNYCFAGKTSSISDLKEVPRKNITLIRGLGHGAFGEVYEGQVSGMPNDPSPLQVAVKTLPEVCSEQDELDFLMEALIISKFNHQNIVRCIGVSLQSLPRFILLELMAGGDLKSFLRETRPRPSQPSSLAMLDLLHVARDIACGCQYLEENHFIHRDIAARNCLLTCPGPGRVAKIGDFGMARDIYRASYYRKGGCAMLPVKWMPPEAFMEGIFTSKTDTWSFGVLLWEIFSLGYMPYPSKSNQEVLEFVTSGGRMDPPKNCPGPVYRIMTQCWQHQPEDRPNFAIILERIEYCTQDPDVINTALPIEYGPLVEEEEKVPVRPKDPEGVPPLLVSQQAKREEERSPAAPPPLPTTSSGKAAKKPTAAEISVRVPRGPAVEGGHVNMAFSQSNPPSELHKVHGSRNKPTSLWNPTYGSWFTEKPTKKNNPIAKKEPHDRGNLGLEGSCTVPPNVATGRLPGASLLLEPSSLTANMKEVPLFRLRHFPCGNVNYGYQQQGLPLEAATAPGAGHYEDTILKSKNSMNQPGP

[16] = target: Tyrosine-protein kinase Blk (Mus musculus, UniProt P16277); assay: Inhibition of mouse BLK using ATP as substrate
[17] = target: Serine/threonine-protein kinase Chk2 (Homo sapiens, UniProt O96017); assay: Inhibition of human CHK2 using ATP as substrate
[18] = target: Platelet-derived growth factor receptor alpha (Homo sapiens, UniProt P16234); assay: Inhibition of human PDGFRalpha using ATP as substrate
Sequence of Platelet-derived growth factor receptor alpha (P16234 whole entry): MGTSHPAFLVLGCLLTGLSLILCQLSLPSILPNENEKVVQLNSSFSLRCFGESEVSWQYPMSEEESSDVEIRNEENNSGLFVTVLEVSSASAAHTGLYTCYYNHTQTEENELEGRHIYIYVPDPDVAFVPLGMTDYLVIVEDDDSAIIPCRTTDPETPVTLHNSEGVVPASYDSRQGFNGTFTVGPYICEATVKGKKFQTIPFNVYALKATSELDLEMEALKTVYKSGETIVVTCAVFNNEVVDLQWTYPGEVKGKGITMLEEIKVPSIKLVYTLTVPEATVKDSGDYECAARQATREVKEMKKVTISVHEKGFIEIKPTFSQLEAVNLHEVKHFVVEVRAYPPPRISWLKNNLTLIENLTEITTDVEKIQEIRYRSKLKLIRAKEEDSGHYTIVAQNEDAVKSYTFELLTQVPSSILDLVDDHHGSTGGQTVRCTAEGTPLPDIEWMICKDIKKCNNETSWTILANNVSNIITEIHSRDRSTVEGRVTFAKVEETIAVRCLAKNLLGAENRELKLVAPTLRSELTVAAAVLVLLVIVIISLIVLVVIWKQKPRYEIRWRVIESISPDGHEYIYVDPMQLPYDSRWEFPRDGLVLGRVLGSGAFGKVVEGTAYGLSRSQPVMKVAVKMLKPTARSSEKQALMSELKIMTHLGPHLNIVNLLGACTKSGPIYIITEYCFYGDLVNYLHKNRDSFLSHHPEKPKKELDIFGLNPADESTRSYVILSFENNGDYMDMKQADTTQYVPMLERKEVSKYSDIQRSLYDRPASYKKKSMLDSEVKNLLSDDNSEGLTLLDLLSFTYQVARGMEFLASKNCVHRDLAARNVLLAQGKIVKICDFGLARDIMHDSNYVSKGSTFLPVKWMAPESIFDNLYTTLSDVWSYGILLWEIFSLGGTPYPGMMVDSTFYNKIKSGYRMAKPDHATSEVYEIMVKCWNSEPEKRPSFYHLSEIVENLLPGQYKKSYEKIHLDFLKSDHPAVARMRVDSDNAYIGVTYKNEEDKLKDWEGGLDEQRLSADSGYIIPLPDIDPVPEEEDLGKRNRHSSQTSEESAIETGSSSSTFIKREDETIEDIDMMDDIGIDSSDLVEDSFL

[19] = Inhibition of IRK at 1 uM
[20] = target: Tyrosine-protein kinase JAK2 (Homo sapiens) (UniProt O60674); assay: Inhibition of JAK2 at 1 uM
[21] = Inhibition of Mek at 1 uM
[22] = target: RAC-alpha serine/threonine-protein kinase (Homo sapiens) (UniProt P31749); assay: Inhibition of PKB at 1 uM
Sequence of RAC-alpha serine/threonine-protein kinase (Homo sapiens) (P31749 whole entry): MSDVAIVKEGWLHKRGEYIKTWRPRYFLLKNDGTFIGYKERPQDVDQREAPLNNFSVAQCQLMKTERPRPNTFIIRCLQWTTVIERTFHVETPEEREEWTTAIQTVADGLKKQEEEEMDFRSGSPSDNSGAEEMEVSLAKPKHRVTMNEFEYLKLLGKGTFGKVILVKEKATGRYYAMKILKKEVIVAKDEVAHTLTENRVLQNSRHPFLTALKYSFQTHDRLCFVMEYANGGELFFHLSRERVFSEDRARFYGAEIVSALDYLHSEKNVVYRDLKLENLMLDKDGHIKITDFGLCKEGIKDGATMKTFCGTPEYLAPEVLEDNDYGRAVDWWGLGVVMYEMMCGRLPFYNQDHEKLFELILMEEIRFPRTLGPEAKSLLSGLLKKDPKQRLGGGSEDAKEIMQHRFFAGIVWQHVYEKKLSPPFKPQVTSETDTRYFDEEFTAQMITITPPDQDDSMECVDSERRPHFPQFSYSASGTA

[23] = Inhibition of PKC at 1 uM
[24] = target: Substance-K receptor (Homo sapiens) (UniProt P21452); assay: Inhibition of neurokinin NK2 receptor at 10 uM
Sequence of Substance-K receptor (Homo sapiens) (P21452 whole entry): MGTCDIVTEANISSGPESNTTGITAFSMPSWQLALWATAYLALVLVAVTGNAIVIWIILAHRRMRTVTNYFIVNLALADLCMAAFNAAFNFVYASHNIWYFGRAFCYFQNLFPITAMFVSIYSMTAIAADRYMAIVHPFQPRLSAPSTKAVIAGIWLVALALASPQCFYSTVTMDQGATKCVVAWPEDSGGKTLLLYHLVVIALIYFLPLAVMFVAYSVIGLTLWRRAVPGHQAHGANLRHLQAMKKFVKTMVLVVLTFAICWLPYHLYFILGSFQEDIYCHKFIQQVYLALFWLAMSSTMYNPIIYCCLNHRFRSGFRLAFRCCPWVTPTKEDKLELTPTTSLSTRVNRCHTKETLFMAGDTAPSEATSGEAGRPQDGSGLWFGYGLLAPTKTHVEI

[25] = target: Adenosine receptor A2a (Homo sapiens, UniProt P29274); assay: Inhibition of adenosine A2A receptor
Sequence of Adenosine receptor A2a (P29274 whole entry): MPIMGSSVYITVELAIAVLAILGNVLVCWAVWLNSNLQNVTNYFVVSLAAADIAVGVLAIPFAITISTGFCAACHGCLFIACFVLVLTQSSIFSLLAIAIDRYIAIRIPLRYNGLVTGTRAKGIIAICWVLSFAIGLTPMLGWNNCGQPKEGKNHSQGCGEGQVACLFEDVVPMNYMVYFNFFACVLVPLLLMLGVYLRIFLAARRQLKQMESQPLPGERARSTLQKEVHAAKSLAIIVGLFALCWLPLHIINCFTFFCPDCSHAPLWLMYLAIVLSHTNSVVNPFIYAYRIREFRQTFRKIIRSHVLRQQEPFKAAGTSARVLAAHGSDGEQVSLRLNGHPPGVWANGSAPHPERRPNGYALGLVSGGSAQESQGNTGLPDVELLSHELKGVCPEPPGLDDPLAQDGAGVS

[26] = target: Voltage-gated inwardly rectifying potassium channel KCNH2 (Homo sapiens, UniProt Q12809); assay: Inhibition of human Erg expressed CHO cells; type: cell-based
[27] = tested on: HUVEC; assay: Antiangiogenic activity in HUVEC assessed as inhibition of capillary-tube formation by matrigel assay; type: functional, cell-based; settings: Homo sapiens
[28] = tested on: Aorta; assay: Antiangiogenic activity in rat aortic rings assessed as inhibition of peak phase microvessel growth; type: functional, tissue-based
[29] = Antiangiogenic activity in BAEC assessed as inhibition of VEGF-induced proliferation; type: functional; settings: Bos taurus
[30] = Antiangiogenic activity in BAEC assessed as inhibition of FGF-induced proliferation; type: functional; settings: Bos taurus
[31] = Antiangiogenic activity in HMVEC assessed as inhibition of FGF-induced migration; type: functional; settings: Homo sapiens
[32] = Antiangiogenic activity in BAEC assessed as inhibition of FGF-induced migration; type: functional; settings: Bos taurus
[33] = tested on: HUVEC; assay: Antiangiogenic activity in HUVEC assessed as inhibition of FGF-induced survival; type: functional, cell-based; settings: Homo sapiens
[34] = Antitumor activity against human U251MG cells xenografted in athymic nude mouse assessed as tumor growth inhibition at 1 mg/kg, po bid measured on day 29 relative to control; type: functional; settings: U-251, 696 h, read-out: GI
[35] = Antitumor activity against human U251MG cells xenografted in athymic nude mouse assessed as partial tumor regression at 10 mg/kg, po bid; type: functional, U-251
[36] = Antitumor activity against human U251MG cells xenografted in athymic nude mouse assessed as partial tumor regression at 30 mg/kg, po bid; type: functional, U-251
[37] = Cmax in athymic nude mouse tumor xenografted with human U251MG cells at 30 mg/kg, po; type: ADME, organism-based, Neoplasm, U-251; set-up: dose 30 mg/kg, route oral
[38] = tested on: A-375; assay: Antitumor activity against human A375 cells xenografted in po dosed athymic nude mouse assessed as tumor growth inhibition bid measured on day 29 relative to control; type: functional; settings: A-375, po, 696 h, read-out: MED
[39] = tested on: A-375; assay: Antitumor activity against human A375 cells xenografted in athymic nude mouse assessed as partial tumor regression at 10 mg/kg, po bid; type: functional
[40] = tested on: A-375; assay: Antitumor activity against human A375 cells xenografted in athymic nude mouse assessed as complete tumor regression at 3 mg/kg, po bid; type: functional
[41] = tested on: Mus musculus; assay: Toxicity in athymic nude mouse bearing human A375 cells assessed as apparent toxicity at 0.1 to 10 mg/kg, po; type: organism-based, A-375; set-up: dose 0.1-10 mg/kg, route oral; settings: in vivo
[42] = tested on: Mus musculus; assay: Toxicity in athymic nude mouse bearing human U251MG cells assessed as apparent toxicity at 1 to 30 mg/kg, po; type: organism-based, U-251; set-up: dose 1-30 mg/kg, route oral; settings: in vivo
[43] = tested on: P388; assay: Antitumor activity against mouse P388 cells xenografted in DBA/2 mouse assessed as mean survival at 30 mg/kg, po qd for 14 days followed by readministeration after 7 days; type: functional
[44] = tested on: P388; assay: Antitumor activity against mouse P388 cells xenografted in DBA/2 mouse assessed as mean survival at 30 mg/kg, po bid for 14 days followed by readministeration after 7 days; type: functional
[45] = target: Vascular endothelial growth factor receptor 2 (Homo sapiens, UniProt P35968)
Description: Inhibition of human VEGFR2 expressed in porcine PAE145 cells cotransfected with chimeric rat TRK-A/KDR receptor after 1 hr by immunofluorescence assay

[46] = target: Muscarinic acetylcholine receptor M4 (Homo sapiens) (UniProt P08173); settings: 10 uM
Description: Inhibition of muscarinic M4 receptor at 10 uM

[47] = target: Insulin-like growth factor 1 receptor (Homo sapiens) (UniProt P08069); assay: Inhibition of IGFR1 at 1 uM
[48] = Cmax in athymic nude mouse tumor xenografted with human A375 cells at 10 mg/kg, po
[49] = tested on: A-375; assay: Antitumor activity against human A375 cells xenografted in athymic nude mouse assessed as partial tumor regression at 0.3 mg/kg, po bid
[50] = tested on: A-375; assay: Antitumor activity against human A375 cells xenografted in athymic nude mouse assessed as complete tumor regression at 0.3 mg/kg, po bid
[51] = tested on: P388; assay: Antitumor activity against mouse P388 cells xenografted in DBA/2 mouse assessed as mean survival at 30 mg/kg, po qd for 7 days followed by readministeration

## CC(C)Cn1c2ccc(Nc3ncccn3)cc2c2c3c(c4c(c21)CCc1nn(C)cc1-4)C(=O)NC3 [CEP-11981]
[1]
  Activity: 0%
[2]
  Activity: 0%
[3]
  remaining at 2 h: 79%
[4]
  half-life: 1.9 h
[5]
  AUC: 8560 ng·h/mL
[6]
  half-life: 3 h
[7]
  half-life: 1.7 h
[8]
  AUC: 2480 ng·h/mL
[9]
  Tmax: 2 h
[10]
  bioavailability: 93%
[11]
  IC50: > 30000 nM
[12]
  IC50: 9000 nM
[13]
  Activity: Not Active
[14]
  Papp: > 4 ×10⁻⁶ cm/s
[15]
  IC50: 132 nM
[16]
  IC50: 8 nM
[17]
  IC50: 140 nM
[18]
  IC50: 246 nM
[19]
  inhibition: Active
[20]
  inhibition: Active
[21]
  inhibition: Active
[22]
  inhibition: Active
[23]
  inhibition: Active
[24]
  inhibition: > 80%
[25]
  Ki: 500 nM
[26]
  IC50: 20000 nM
[27]
  EC50: 2 nM
[28]
  Activity: Dose-dependent effect
  EC50: 4 nM
[29]
  EC50: 8 nM
[30]
  EC50: 8 nM
[31]
  EC50: 8 nM
[32]
  EC50: 8 nM
[33]
  EC50: 8 nM
[34]
  inhibition in vivo at 1 mg/kg: 43%
[35]
  Activity: 20%
[36]
  Activity: 44%
[37]
  Cmax: 401 ng/g
[38]
  minimal effective dose: 0.3 mg/kg
[39]
  Activity: 50%
[40]
  Activity: 22%
[41]
  Activity: Non-toxic
[42]
  Activity: Non-toxic
[43]
  MSD: 23.5 days
[44]
  MSD: 27.5 days
[45]
  IC50: < 10 nM
[46]
  inhibition: > 80%
[47]
  inhibition: Active
[48]
  Cmax: 140 ng/g
[49]
  Activity: 20%
[50]
  Activity: 10%
[51]
  MSD: 20.5 days
